Experimental data: BindingDB's records for patent US10799494 (2020)

The molecules below were run against T1, Probable integral membrane cytochrome D ubiquinol oxidase (Subunit II) CydB (Cytochrome BD-I oxidase subunit II) (Mycobacterium tuberculosis (strain ATCC 25618 / H37Rv), UniProt O06139) (assay: Mtb cytochrome bd inhibition assay).
T1 sequence (O06139 whole entry): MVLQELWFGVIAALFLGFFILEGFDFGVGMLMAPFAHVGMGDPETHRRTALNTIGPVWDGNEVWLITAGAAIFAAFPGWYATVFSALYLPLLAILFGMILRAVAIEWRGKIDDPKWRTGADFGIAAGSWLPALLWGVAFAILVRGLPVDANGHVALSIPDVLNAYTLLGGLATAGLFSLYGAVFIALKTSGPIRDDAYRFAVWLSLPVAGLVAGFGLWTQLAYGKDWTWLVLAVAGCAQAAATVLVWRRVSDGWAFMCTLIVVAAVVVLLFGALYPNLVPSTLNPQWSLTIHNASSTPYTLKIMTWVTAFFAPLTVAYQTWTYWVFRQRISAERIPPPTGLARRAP
`Cc1c(-c2ccc(Cc3ccccc3)cc2)[nH]c2ccccc2c1=O` [US10799494, Compound CK-2-88] showed an IC50 of 0.02 µM.
With `Cc1c(-c2ccc(Oc3ccc(F)cc3)nc2)[nH]c2ccccc2c1=O` [US10799494, Compound CK-3-14] the IC50 was 10.6 µM.
`Cc1c(-c2ccc(Oc3ccc(OC(F)(F)F)cc3)nc2)[nH]c2ccccc2c1=O` [US10799494, Compound CK-3-22] gave an IC50 of 0.14 µM.
`COc1c(C)c(-c2ccc(Cc3ccccc3)cc2)nc2ccccc12` [US10799494, Compound CK-3-23] showed an IC50 of 3.6 µM.
In the case of `CCOC(=O)c1c(-c2ccc(Cc3ccc(OC(F)(F)F)cc3)cc2)[nH]c2ccccc2c1=O` [US10799494, Compound GN-1710], the IC50 is reported as 0.25 µM.
Work on `Cc1c(-c2ccc(N3CCCCC3)cc2)[nH]c2cc(F)cc(F)c2c1=O` [US10799494, Compound MTD-403] yielded an IC50 of 0.27 µM.
For `Cc1c(-c2ccc(-c3ccc(C(F)(F)F)nc3)nc2)[nH]c2ccccc2c1=O` [US10799494, Compound PG-128], the IC50 was 4.47 µM.
Molecule `Cc1[nH]c2ccccc2c(=O)c1-c1ccc(Oc2ccc(OC(F)(F)F)cc2)cc1` [US10799494, Compound PG-203] has an IC50 of 0.07 µM.
Work on `O=c1cc(-c2ccc(Cc3ccc(OC(F)(F)F)cc3)cc2)[nH]c2ccccc12` [US10799494, Compound RKA-70] yielded an IC50 of 0.75 µM.
For `O=c1cc(-c2ccc(Cc3ccc(OC(F)(F)F)cc3)cc2)n(O)c2ccccc12` [US10799494, Compound RKA-73], the IC50 was 0.31 µM.
`COc1ccc2c(=O)c(C)c(-c3ccc(Oc4ccc(OC(F)(F)F)cc4)nc3)[nH]c2c1` [US10799494, Compound RKA-259] gave an IC50 of 3.6 µM.
With `Cc1c(-c2ccc(N3CCCCC3)cc2)[nH]c2ccccc2c1=O` [US10799494, Compound RKA-307] the IC50 was 0.44 µM.
In the case of `COc1ccc2c(=O)c(C)c(-c3ccc(N4CCCCC4)cc3)[nH]c2c1` [US10799494, Compound RKA-310], the IC50 is reported as 1.4 µM.
In the case of `Cc1c(-c2ccc(-c3ccc(OC(F)(F)F)cc3)nc2)[nH]c2ccccc2c1=O` [US10799494, Compound SL-2-25], the IC50 is reported as 0.29 µM.
With `O=c1cc(-c2cnn(Cc3ccc(OC(F)(F)F)cc3)c2)[nH]c2ccccc12` [US10799494, Compound WDH-1W-5] the IC50 was 15.8 µM.
For `Cc1c(-c2cnn(Cc3ccc(OC(F)(F)F)cc3)c2)[nH]c2ccccc2c1=O` [US10799494, Compound WDH-2A-9], the IC50 was 6.5 µM.
`Cc1c(-c2ccc(-c3ccc(C(F)(F)F)cc3)nc2)[nH]c2ccccc2c1=O` [US10799494, Example RKA 142] was tested, and the IC50 was 2.02 µM.
`CC(C)c1c(-c2cnn(Cc3ccc(OC(F)(F)F)cc3)c2)[nH]c2ccccc2c1=O` [US10799494, Example WDH-2G-6] showed an IC50 of 0.082 µM.
